According to patent US20260207623A1, “USE OF ESTETROL IN HEPATICALLY IMPAIRED PATIENTS” (ESTETRA SRL, priority 2022, published 2026):

Legend:
post-menopausal women = experiment: Example 3 (15 mg, 20 mg E4 monohydrate or placebo): weekly frequency of moderate to severe VMS and responder proportions; type: in vivo, human
Protocol: A further clinical study was designed to evaluate the effect of 15 or 20 mg estetrol (E4) monohydrate, or placebo on the severity and frequency of vasomotor symptoms (VMS) and the safety of E4 20 mg. The inclusion and exclusion criteria as described for Example 2 were maintained for the present Example (i.e. Example 3).
• 1. Mean change in weekly frequency of moderate to severe vasomotor symptoms (VMS) from Baseline to Week 4 (Efficacy Study Part) [Time Frame: Baseline and Week 4]: • The weekly frequency of moderate to severe VMS at Baseline and Week 4 is defined as the total number (sum) of all recorded moderate to severe VMS experienced during the last 7 consecutive days prior randomization for Baseline and at Week 4. Mean change=mean weekly frequency at Week 4-mean weekly frequency at Baseline. • 2. Mean change in weekly frequency of moderate to severe vasomotor symptoms (VMS) from Baseline to Week 12 (Efficacy Study Part) [Time Frame: Baseline and Week 12] • The weekly frequency of moderate to severe VMS at Baseline and Week 12 is defined as the total number (sum) of all recorded moderate to severe VMS experienced during the last 7 consecutive days prior randomization for Baseline and at Week 12. Mean change=mean weekly frequency at Week 12-mean weekly frequency at Baseline. • 3. […]

[1] = test system: triglycerides, glucose, cholesterol, HDL-cholesterol, LDL-cholesterol level; experiment: Example 2 section F: lipid parameters and glucose level (triglycerides, glucose, cholesterol, HDL-cholesterol, LDL-cholesterol) at 15 mg and 20 mg daily doses; type: in vivo, human
Protocol: In order to better assess the potential for increasing the daily dose beyond the minimum effective dose of 15 mg estetrol monohydrate daily, a number of parameters were followed in a study where estetrol monohydrate was administered at the increased dose of 20 mg per day.
1. Triglycerides Level (mmol/L)
2. Glucose Level (mmol/L)
3. Cholesterol Level (mmol/L)
4. HDL-Cholesterol Level (mmol/L)
5. LDL-Cholesterol Level (mmol/L)

Compound: C[C@]12CC[C@@H]3c4ccc(O)cc4CC[C@H]3[C@@H]1[C@@H](O)[C@@H](O)[C@@H]2O [E4, 1,3,5 (10)-estratrien-3,15alpha, 16alpha, 17beta-tetrol]
- frequency of moderate to severe VMS (post-menopausal women; 15 mg and 20 mg vs placebo, weeks 4 and 12 (FIG. 10)): significantly decreased
- number of women with reduced VMS frequency (at least 50% or 75% reduction) vs placebo (post-menopausal women; FIG. 11): higher number of women that experienced a reduced VMS frequency than placebo

Compound: C[C@]12CC[C@@H]3c4ccc(O)cc4CC[C@H]3[C@@H]1[C@@H](O)[C@@H](O)[C@@H]2O [E4 monohydrate, estetrol monohydrate]
- Cholesterol level, Baseline, Mean ([1]; 15 mg daily): 5.51 mmol/L
- Cholesterol level, Baseline, Median ([1]; 15 mg daily): 5.62 mmol/L
- Glucose level, Baseline, Mean ([1]; 15 mg daily): 4.77 mmol/L
- Glucose level, Baseline, Median ([1]; 15 mg daily): 4.72 mmol/L
- HDL-Cholesterol level, Baseline, Mean ([1]; 15 mg daily): 1.73 mmol/L
- HDL-Cholesterol level, Baseline, Median ([1]; 15 mg daily): 1.66 mmol/L
- LDL-Cholesterol level, Baseline, Mean ([1]; 15 mg daily): 3.05 mmol/L
- LDL-Cholesterol level, Baseline, Median ([1]; 15 mg daily): 3.22 mmol/L
- Triglycerides level, Baseline, Mean ([1]; 15 mg daily): 1.32 mmol/L
- Triglycerides level, Baseline, Median ([1]; 15 mg daily): 1.21 mmol/L
- Cholesterol level, End Of Treatment Actual Change from Baseline, Mean ([1]; 15 mg daily, after 12 weeks): 0.12 mmol/L
- Cholesterol level, End Of Treatment Actual Change from Baseline, Median ([1]; 15 mg daily, after 12 weeks): 0.08 mmol/L
- Cholesterol level, End Of Treatment Actual Value, Mean ([1]; 15 mg daily, after 12 weeks): 5.63 mmol/L
- Cholesterol level, End Of Treatment Actual Value, Median ([1]; 15 mg daily, after 12 weeks): 5.71 mmol/L
- Glucose level, End Of Treatment Actual Change from Baseline, Mean ([1]; 15 mg daily, after 12 weeks): 0.02 mmol/L
- Glucose level, End Of Treatment Actual Change from Baseline, Median ([1]; 15 mg daily, after 12 weeks): 0.05 mmol/L
- Glucose level, End Of Treatment Actual Value, Mean ([1]; 15 mg daily, after 12 weeks): 4.79 mmol/L
- Glucose level, End Of Treatment Actual Value, Median ([1]; 15 mg daily, after 12 weeks): 4.77 mmol/L
- HDL-Cholesterol level, End Of Treatment Actual Change from Baseline, Mean ([1]; 15 mg daily, after 12 weeks): 0.16 mmol/L
- HDL-Cholesterol level, End Of Treatment Actual Change from Baseline, Median ([1]; 15 mg daily, after 12 weeks): 0.17 mmol/L
- HDL-Cholesterol level, End Of Treatment Actual Value, Mean ([1]; 15 mg daily, after 12 weeks): 1.89 mmol/L
- HDL-Cholesterol level, End Of Treatment Actual Value, Median ([1]; 15 mg daily, after 12 weeks): 1.81 mmol/L
- LDL-Cholesterol level, End Of Treatment Actual Change from Baseline, Mean ([1]; 15 mg daily, after 12 weeks): 0.09 mmol/L
- LDL-Cholesterol level, End Of Treatment Actual Change from Baseline, Median ([1]; 15 mg daily, after 12 weeks): 0.10 mmol/L
- LDL-Cholesterol level, End Of Treatment Actual Value, Mean ([1]; 15 mg daily, after 12 weeks): 3.14 mmol/L
- LDL-Cholesterol level, End Of Treatment Actual Value, Median ([1]; 15 mg daily, after 12 weeks): 3.25 mmol/L
- Triglycerides level, End Of Treatment Actual Change from Baseline, Mean ([1]; 15 mg daily, after 12 weeks): 0.20 mmol/L
- Triglycerides level, End Of Treatment Actual Change from Baseline, Median ([1]; 15 mg daily, after 12 weeks): 0.15 mmol/L
- Triglycerides level, End Of Treatment Actual Value, Mean ([1]; 15 mg daily, after 12 weeks): 1.61 mmol/L
- Triglycerides level, End Of Treatment Actual Value, Median ([1]; 15 mg daily, after 12 weeks): 1.40 mmol/L
- Cholesterol level, Baseline, Mean ([1]; 20 mg daily): 6.27 mmol/L
- Cholesterol level, Baseline, Median ([1]; 20 mg daily): 6.25 mmol/L
- Glucose level, Baseline, Mean ([1]; 20 mg daily): 5.53 mmol/L
- Glucose level, Baseline, Median ([1]; 20 mg daily): 5.60 mmol/L
- HDL-Cholesterol level, Baseline, Mean ([1]; 20 mg daily): 1.68 mmol/L
- HDL-Cholesterol level, Baseline, Median ([1]; 20 mg daily): 1.60 mmol/L
- LDL-Cholesterol level, Baseline, Mean ([1]; 20 mg daily): 3.94 mmol/L
- LDL-Cholesterol level, Baseline, Median ([1]; 20 mg daily): 4.00 mmol/L
- Triglycerides level, Baseline, Mean ([1]; 20 mg daily): 1.43 mmol/L
- Triglycerides level, Baseline, Median ([1]; 20 mg daily): 1.40 mmol/L
- lipid parameters and glucose level ([1]; 20 mg daily dose in place of 15 mg daily dose): do not behave significantly differently
- Cholesterol level, End Of Treatment Actual Change from Baseline, Mean ([1]; 20 mg daily, after 28 days): -0.18 mmol/L
- Cholesterol level, End Of Treatment Actual Change from Baseline, Median ([1]; 20 mg daily, after 28 days): -0.20 mmol/L
- Cholesterol level, End Of Treatment Actual Value, Mean ([1]; 20 mg daily, after 28 days): 6.09 mmol/L
- Cholesterol level, End Of Treatment Actual Value, Median ([1]; 20 mg daily, after 28 days): 6.10 mmol/L
- Glucose level, End Of Treatment Actual Change from Baseline, Mean ([1]; 20 mg daily, after 28 days): -0.10 mmol/L
- Glucose level, End Of Treatment Actual Change from Baseline, Median ([1]; 20 mg daily, after 28 days): -0.15 mmol/L
- Glucose level, End Of Treatment Actual Value, Mean ([1]; 20 mg daily, after 28 days): 5.44 mmol/L
- Glucose level, End Of Treatment Actual Value, Median ([1]; 20 mg daily, after 28 days): 5.60 mmol/L
- HDL-Cholesterol level, End Of Treatment Actual Change from Baseline, Mean ([1]; 20 mg daily, after 28 days): 0.29 mmol/L
- HDL-Cholesterol level, End Of Treatment Actual Change from Baseline, Median ([1]; 20 mg daily, after 28 days): 0.35 mmol/L
- HDL-Cholesterol level, End Of Treatment Actual Value, Mean ([1]; 20 mg daily, after 28 days): 1.97 mmol/L
- HDL-Cholesterol level, End Of Treatment Actual Value, Median ([1]; 20 mg daily, after 28 days): 1.90 mmol/L
- LDL-Cholesterol level, End Of Treatment Actual Change from Baseline, Mean ([1]; 20 mg daily, after 28 days): -0.51 mmol/L
- LDL-Cholesterol level, End Of Treatment Actual Change from Baseline, Median ([1]; 20 mg daily, after 28 days): -0.65 mmol/L
- LDL-Cholesterol level, End Of Treatment Actual Value, Mean ([1]; 20 mg daily, after 28 days): 3.43 mmol/L
- LDL-Cholesterol level, End Of Treatment Actual Value, Median ([1]; 20 mg daily, after 28 days): 3.45 mmol/L
- Triglycerides level, End Of Treatment Actual Change from Baseline, Mean ([1]; 20 mg daily, after 28 days): 0.10 mmol/L
- Triglycerides level, End Of Treatment Actual Change from Baseline, Median ([1]; 20 mg daily, after 28 days): 0.10 mmol/L
- Triglycerides level, End Of Treatment Actual Value, Mean ([1]; 20 mg daily, after 28 days): 1.53 mmol/L
- Triglycerides level, End Of Treatment Actual Value, Median ([1]; 20 mg daily, after 28 days): 1.40 mmol/L
